The structures appear in SMILES notation.

By IC50 is commonly meant the concentration that gives 50% inhibition. Low values mean inhibition by little substance, high ones a need for much substance.

In this experiment the target is T1, hyaluronidase (HAase) (Bos taurus, UniProt Q2YDK3).
T1 construct: Hyaluronidase was obtained from bovine testes (Sigma-Aldrich, St. Louis, MO, USA); purchased Sigma-Aldrich; host or cells: bovine testes (tissue-derived)
T1 sequence (Q2YDK3 36-553): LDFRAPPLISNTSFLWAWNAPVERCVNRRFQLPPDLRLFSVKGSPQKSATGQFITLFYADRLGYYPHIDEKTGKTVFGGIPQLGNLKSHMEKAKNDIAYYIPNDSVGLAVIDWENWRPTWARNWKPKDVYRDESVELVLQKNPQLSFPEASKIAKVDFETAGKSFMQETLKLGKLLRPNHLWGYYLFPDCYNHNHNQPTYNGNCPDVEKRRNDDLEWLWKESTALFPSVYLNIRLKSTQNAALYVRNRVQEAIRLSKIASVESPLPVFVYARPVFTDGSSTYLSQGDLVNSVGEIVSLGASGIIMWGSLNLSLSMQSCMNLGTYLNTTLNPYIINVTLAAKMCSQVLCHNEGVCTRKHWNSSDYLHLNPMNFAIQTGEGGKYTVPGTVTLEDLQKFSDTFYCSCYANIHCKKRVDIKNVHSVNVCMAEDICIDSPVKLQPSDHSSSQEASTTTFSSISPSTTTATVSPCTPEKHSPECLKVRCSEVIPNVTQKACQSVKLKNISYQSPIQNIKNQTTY
Put plainly: Hyaluronidase inhibitory activity enzymatic assay (HA substrate, DMAB, absorbance 540 nm). Type of experiment: biochemical. The settings on record: hyaluronidase from bovine testes; EGCG positive control. The text has this: Luria–Bertani Broth (LB) and Lactobacilli MRS Broth (Becton, Franklin Lakes, NJ, USA) were used for the bacterial culture. Silica gel (Merck, Darmstadt, Germany) and Sephadex LH-20 gel (Sigma-Aldrich, St. Louis, MO, USA) were used for chromatographic separations. Thin-layer chromatography (TLC) plates (Merck, Darmstadt, Germany) were used for analytical purposes. Hyaluronidase was obtained from bovine testes (Sigma-Aldrich, St. Louis, MO, USA). Nuclear magnetic resonance (NMR) spectrums were obtained using JNM-ECX 400 (FT-NMR system, 400 MHz, JEOL Co., Akishima, Japan).
In the enzymatic assay, 5 μL of hyaluronidase enzyme and 12.5 mM CaCl2 samples at varying concentrations were added to a 96-well plate. The samples were reacted for 20 min and incubated at 37 °C. After the initial incubation, 25 μL of the substrate solution (HA at a concentration of 2.4 mg/mL) was added. The reaction mixture was incubated again at 37 °C for 40 min. Then, 5 μL of 0.4 N NaOH and 5 μL of 0.4 M potassium tetraborate were added to the mixture, followed by incubation at 100 °C for 3 min. After cooling, 150 μL of DMAB solution (p-dimethylaminobenzaldehyde + acetic acid + 10 N HCL) was added to the reaction mixture. The absorbance of the reaction mixture was measured at 540 nm. Epigallocatechin gallate (EGCG) was used as a positive control in this assay.

In turn, `O=C(O[C@@H]1Cc2c(O)cc(O)cc2O[C@@H]1c1cc(O)c(O)c(O)c1)c1cc(O)c(O)c(O)c1` [EGCG, Epigallocatechin gallate] showed an IC50 of 172 µM.

In turn, `COC(=O)Cc1c[nH]c2ccccc12` [Methyl indole-3-acetate, methyl indole-3-acetate] displayed an IC50 of 344 µM.

These data come from article PMC11083829, “Isolation, Characterization, Genome Annotation, and Evaluation of Hyaluronidase Inhibitory Activity in Secondary Metabolites of Brevibacillus sp. JNUCC 41: A Comprehensive Analysis through Molecular Docking and Molecular Dynamics Simulation” (International Journal of Molecular Sciences, 2024).
